Laboratory results as given in patent publication US11766414B2, “Compositions, delivery systems, and methods useful in tumor therapy” (Indi Molecular, Inc., priority 2020, dated 2023).
Like-named read-outs stand apart in the source and are kept apart here. Each block holds one compound with its values, some of them ahead of it. Starred links: 1 amine or outer side, 2 acyl side, 3 side chain; linkers in the order of their positions; H or OH if unused. Positions of bridges follow the written chain, without caps; N, C: chain ends. Non-standard residues stand in square brackets, D forms with d. Residues, ends and D or L forms follow the SMILES beside them. Triazole bridges read from a SMILES are 1,4-linked. *: point of attachment. DOTA = O=C(O)CN1CCN(CC(=O)O)CCN(CC(=O)*)CCN(CC(=O)O)CC1; Pteroyl = Nc1nc2ncc(CNc3ccc(C(=O)*)cc3)nc2c(=O)[nH]1; Biotin = O=C1N[C@H]2[C@H](CS[C@H]2CCCCC(=O)*)N1; PEG10 = NCCOCCOCCOCCOCCOCCOCCOCCOCCOCCOCCC(=O)O; Butanoyl(4-(4-MePh)) = Cc1ccc(CCCC(=O)*)cc1; Lys(N3) = [N-]=[N+]=NCCCC[C@H](N)C(=O)O; γGlu = O=C(O)[C@H](CCC(=O)[*:2])N[*:1]; PEG7 = NCCOCCOCCOCCOCCOCCOCCOCCC(=O)O; AEEEA = NCCOCCOCCOCC(=O)O; Pra = C#CC[C@H](N)C(=O)O; X1 = NOCC(=O)*

Key:
[1] = target: FOLR1 (Homo sapiens, UniProt P15328); assay: ELISA assay of FOLR1 binding
Sequence of FOLR1 (P15328 25-234): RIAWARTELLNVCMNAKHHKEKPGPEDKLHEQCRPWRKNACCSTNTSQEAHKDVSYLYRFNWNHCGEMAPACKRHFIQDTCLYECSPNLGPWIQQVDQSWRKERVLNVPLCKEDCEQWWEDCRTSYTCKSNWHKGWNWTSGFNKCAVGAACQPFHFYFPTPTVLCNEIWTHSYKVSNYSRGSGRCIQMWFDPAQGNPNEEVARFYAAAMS
Text: FIG. 5 is a diagram of ELISA assay of FOLR1 binding of heterobiligands.

[2] = Plasma protein binding, CD-1 mouse plasma; format: in vitro ADME
Procedure: (§1) HTD 96 a/b regenerated cellulose membrane strips with mass cutoff of 12-14 kDa were soaked in ultra-pure water at room temperature for 1 hour. Each swelled membrane was then soaked in 20:80 ethanol:water for 20 minutes.
(§2) Just prior to the experiment, the membranes were re-soaked in ultra-pure water. Plasma was prepared by thawing under cold water. The plasma was centrifuged to remove any clots and pH was adjusted to 7.0-8.0. Test articles and control compounds were diluted to 2 μM. The dialysis device was loaded by transferring 150 μL of the test article (in triplicate) to the donor side. The dialysis device was placed in a humidified incubator at 37° C. with 5% CO2 in a shaking platform that rotated slowly for 4 hours. After incubation, 50 μL of the supernatant was taken from both sides and analyzed by LC-MS/MS.

[3] = Plasma protein binding, human plasma; format: in vitro ADME
Procedure: as §1, §2

[4] = target: human recombinant NEP (Homo sapiens, UniProt P08473); assay: NEP enzymatic cleavage assay (MALDI, HPLC); format: biochemical; conditions: for NEP-mediated cleavage: MALDI
Sequence of human recombinant NEP (P08473 whole entry): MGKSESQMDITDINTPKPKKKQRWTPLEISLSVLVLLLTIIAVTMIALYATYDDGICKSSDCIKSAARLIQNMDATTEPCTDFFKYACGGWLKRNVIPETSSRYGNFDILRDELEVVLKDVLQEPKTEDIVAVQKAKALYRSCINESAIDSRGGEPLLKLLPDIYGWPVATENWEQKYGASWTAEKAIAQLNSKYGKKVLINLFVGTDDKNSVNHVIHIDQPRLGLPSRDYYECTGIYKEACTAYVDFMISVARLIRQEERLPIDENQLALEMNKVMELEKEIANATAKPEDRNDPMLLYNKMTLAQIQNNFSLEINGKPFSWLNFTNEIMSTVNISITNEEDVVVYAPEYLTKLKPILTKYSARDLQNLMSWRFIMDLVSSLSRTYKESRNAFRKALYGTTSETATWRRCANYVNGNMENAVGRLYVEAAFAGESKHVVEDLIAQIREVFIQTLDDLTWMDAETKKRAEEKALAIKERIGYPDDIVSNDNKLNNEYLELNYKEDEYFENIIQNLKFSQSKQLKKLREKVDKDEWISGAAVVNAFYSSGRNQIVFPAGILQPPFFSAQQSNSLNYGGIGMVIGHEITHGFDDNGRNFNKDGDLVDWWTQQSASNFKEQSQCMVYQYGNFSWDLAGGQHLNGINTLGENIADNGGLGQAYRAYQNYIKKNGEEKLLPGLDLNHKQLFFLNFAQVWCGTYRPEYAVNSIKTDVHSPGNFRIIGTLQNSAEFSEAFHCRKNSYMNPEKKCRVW
Procedure: In order to test the susceptibility of GFK and MVK linkers to NEP-mediated cleavage, the peptide (Folate-hshta-Lys(MPBA)-Gly-Phe-Lys(DOTA) (SEQ ID NO:6)) was incubated with human recombinant NEP and analyzed the solution for the presence of cleaved adducts. MALDI was utilized to monitor the cleavage of a PCC heterobiligand that contains a NEP protease recognizable sequence (G-F-K). The PCC concentration was constant and the NEP concentration was titrated down from 10 nM to 1 nM, 0.1 nM, 0.01 nM, and no NEP. The NEP-mediated cleaved adduct was identified by mass. 10 μM PCC containing the GFK linker was combined with varying amounts of NEP. […] Below 0.1 nM no cleavage was observed. • Folate-hshta-Lys(MPBA)-Gly-Phe-Lys(DOTA) (SEQ ID NO:6) • Molecular weight 2231.42
The NEP-mediated cleavage was also monitored by HPLC. In agreement with the MALDI spectra, the HPLC chromatograms show depletion of the parent brush-border heterobiligand (retention time 17.1 minutes), dose-dependent on the amount of NEP spiked into the sample (10 nM, 1 nM, 0.1 nM, 0.01 nM, and no NEP). An appearance of a new peak (retention time 16.5 minutes) in concert with the depletion of the starting material is presumed to be the cleaved folate-containing peptide.
In order to test the specificity of NEP, a non-cleavable linker (PEG3) was also assayed.
To reduce the radioactive dose to the kidney, Indi ^177Lu-7327 was constructed to incorporate a GFK linker that is susceptible to cleavage by enzymes found predominately in the kidney's brush border. These enzymes cleave off the radionuclide-chelator complex, which is quickly eliminated by the kidney for excretion in the urine. The zinc metalloprotease neprilysin (NEP) is expressed with high abundance in the kidney. […] To confirm NEP-mediated cleavage of the GFK linker in Indi 7327, the peptide was incubated with recombinant human NEP at 37° C. for 1 h and analyzed by matrix-assisted laser desorption/ionization mass spectrometry (MALDI-MS) for the evolution of cleaved adducts (FIG. 42). […] The expected cleaved adduct (mass: 1283.16 m/z) appears in the samples containing 10, 1.0, and 0.1 nM NEP. […] Below 0.1 nM NEP, no cleavage was observed. In addition to confirming the selectivity of NEP for the GFK linker, it is also important to note that the remaining portions of the Indi 7327 were impervious to the enzyme.

EC50 ([1]; read-out: EC50 (ELISA, FOLR1)): 0.9 nM
SMILES: C[C@H](O)[C@H]1NC(=O)[C@@H](Cc2c[nH]cn2)NC(=O)[C@@H](CO)NC(=O)[C@@H](Cc2c[nH]cn2)NC(=O)[C@@H](NC(=O)CNC(=O)CC[C@H](NC(=O)c2ccc(NCc3cnc4nc(N)[nH]c(=O)c4n3)cc2)C(=O)O)Cc2cn(nn2)CCCC[C@@H](C(=O)NCCOCCOCCOCCOCCOCCOCCOCCOCCOCCOCCC(=O)NCCOCCOCCOCCOCCOCCOCCOCCOCCOCCOCCC(=O)N[C@@H](CCCCNC(=O)CCCC[C@@H]2SC[C@@H]3NC(=O)N[C@@H]32)C(N)=O)NC(=O)[C@@H](C)NC1=O [Folate-Gly-hshta] ({Pteroyl-γGlu}-G[Pra][dH][dS][dH][dT][dA][Lys(N3)][PEG10][PEG10]K(Biotin)-NH2; triazole 2-8)

EC50 ([1]; read-out: EC50 (ELISA, FOLR1)): 1 nM
SMILES: C[C@H](O)[C@H]1NC(=O)[C@@H](Cc2c[nH]cn2)NC(=O)[C@@H](CO)NC(=O)[C@@H](Cc2c[nH]cn2)NC(=O)[C@@H](NC(=O)CCOCCOCCOCCOCCOCCOCCOCCNC(=O)CC[C@H](NC(=O)c2ccc(NCc3cnc4nc(N)[nH]c(=O)c4n3)cc2)C(=O)O)Cc2cn(nn2)CCCC[C@@H](C(=O)NCCOCCOCCOCCOCCOCCOCCOCCOCCOCCOCCC(=O)NCCOCCOCCOCCOCCOCCOCCOCCOCCOCCOCCC(=O)N[C@@H](CCCCNC(=O)CCCC[C@@H]2SC[C@@H]3NC(=O)N[C@@H]32)C(N)=O)NC(=O)[C@@H](C)NC1=O [Folate-PEG7-hshta] ({Pteroyl-γGlu-PEG7}-[Pra][dH][dS][dH][dT][dA][Lys(N3)][PEG10][PEG10]K(Biotin)-NH2; triazole 1-7)

EC50 ([1]; read-out: EC50 (ELISA, FOLR1)): 0.9 nM
SMILES: C[C@H](O)[C@H]1NC(=O)[C@@H](Cc2c[nH]cn2)NC(=O)[C@@H](CO)NC(=O)[C@@H](Cc2c[nH]cn2)NC(=O)[C@@H](NC(=O)[C@H]2CCCN2C(=O)CC[C@H](NC(=O)c2ccc(NCc3cnc4nc(N)[nH]c(=O)c4n3)cc2)C(=O)O)Cc2cn(nn2)CCCC[C@@H](C(=O)NCCOCCOCCOCCOCCOCCOCCOCCOCCOCCOCCC(=O)NCCOCCOCCOCCOCCOCCOCCOCCOCCOCCOCCC(=O)N[C@@H](CCCCNC(=O)CCCC[C@@H]2SC[C@@H]3NC(=O)N[C@@H]32)C(N)=O)NC(=O)[C@@H](C)NC1=O [Folate-Pro-hshta] ({Pteroyl-γGlu}-[dP][Pra][dH][dS][dH][dT][dA][Lys(N3)][PEG10][PEG10]K(Biotin)-NH2; triazole 2-8)

EC50 ([1]; read-out: EC50 (ELISA, FOLR1)): 0.27 nM
SMILES: C[C@H](O)[C@H]1NC(=O)[C@@H](Cc2ccc(O)cc2)NC(=O)[C@@H](CCCNC(=N)N)NC(=O)[C@@H](CCC(=O)O)NC(=O)[C@@H](CC(=O)O)NC(=O)[C@@H](NC(=O)[C@H](Cc2cn(CCOCCOCCOCCNC(=O)CC[C@H](NC(=O)c3ccc(NCc4cnc5nc(N)[nH]c(=O)c5n4)cc3)C(=O)O)nn2)NC(=O)CCOCCOCCOCCOCCOCCOCCOCCOCCOCCOCCNC(=O)CCOCCOCCOCCOCCOCCOCCOCCOCCOCCOCCNC(=O)CCCC[C@@H]2SC[C@@H]3NC(=O)N[C@@H]32)Cc2cn(nn2)CCCC[C@@H](C(N)=O)NC1=O [Pra(Az4-PEG3-folate)-deryt]

SMILES: C[C@H](O)[C@H]1NC(=O)[C@@H](Cc2cnc[nH]2)NC(=O)[C@@H](CO)NC(=O)[C@@H](Cc2cnc[nH]2)NC(=O)[C@@H](NC(=O)CC[C@H](NC(=O)c2ccc(NCc3cnc4nc(N)[nH]c(=O)c4n3)cc2)C(=O)O)Cc2cn(nn2)CCCC[C@@H](C(=O)NCCOCCOCCOCC(=O)N[C@@H](CCCCNC(=O)CON)C(N)=O)NC(=O)[C@@H](C)NC1=O [compound 0328, Fol-hshta-PEG3-Lys(AO)] ({Pteroyl-γGlu}-[Pra][dH][dS][dH][dT][dA][Lys(N3)][AEEEA]K(X1)-NH2; triazole 1-7)
fraction unbound at 4 h, 2 μM ([2]; CD-1, mouse, plasma, AO-containing constructs, (FB), read-out: Plasma % Bound, Mu): 0.798 | recovery at 4 h, 2 μM ([2]; CD-1, mouse, plasma, AO-containing constructs, (FB), read-out: Plasma protein binding % Recovery, Mu): 115% | fraction unbound at 4 h, 2 μM ([3]; human, plasma, AO-containing constructs, (FB), read-out: Plasma % Bound, Hu): 0.57 | recovery at 4 h, 2 μM ([3]; human, plasma, AO-containing constructs, (FB), read-out: Plasma protein binding % Recovery, Hu): 85%

SMILES: C[C@H](O)[C@H]1NC(=O)[C@@H](Cc2c[nH]cn2)NC(=O)[C@@H](CO)NC(=O)[C@@H](Cc2c[nH]cn2)NC(=O)[C@@H](NC(=O)CC[C@H](NC(=O)c2ccc(NCc3cnc4nc(N)[nH]c(=O)c4n3)cc2)C(=O)O)Cc2cn(nn2)CCCC[C@@H](C(=O)NCCOCCOCCOCC(=O)N[C@@H](CCCCNC(=O)CN2CCN(CC(=O)O)CCN(CC(=O)O)CCN(CC(=O)O)CC2)C(N)=O)NC(=O)[C@@H](C)NC1=O [compound 1189, Fol-hshta-PEG3-Lys(DOTA)] ({Pteroyl-γGlu}-[Pra][dH][dS][dH][dT][dA][Lys(N3)][AEEEA]K(DOTA)-NH2; triazole 1-7)
fraction unbound ([2]; CD-1 mouse plasma, read-out: Plasma % Bound, Mu (converted)): 0.705 | recovery ([2]; CD-1 mouse plasma, read-out: Plasma protein binding % Recovery, Mu): 97.4% | recovery ([3]; human plasma, read-out: Plasma protein binding % Recovery, Hu): 102% | fraction unbound ([3]; human, plasma, human plasma, read-out: Plasma % Bound, Hu (converted)): 0.54

in vitro Assay Data (NEP assay) ([4]; Table 7, AO-containing constructs): Cleavage of —G—F—K-
SMILES: Cc1ccc(CCCC(=O)NCCCC[C@H](NC(=O)[C@@H]2CCCCn3cc(nn3)C[C@H](NC(=O)CC[C@H](NC(=O)c3ccc(NCc4cnc5nc(N)[nH]c(=O)c5n4)cc3)C(=O)O)C(=O)N[C@H](Cc3cnc[nH]3)C(=O)N[C@H](CO)C(=O)N[C@H](Cc3cnc[nH]3)C(=O)N[C@H]([C@H](C)O)C(=O)N[C@H](C)C(=O)N2)C(=O)NCC(=O)N[C@@H](Cc2ccccc2)C(=O)N[C@@H](CCCCNC(=O)CON)C(=O)O)cc1 [compound 3304, Fol-hshta-Lys(4-MPBA)-Gly-Phe-Lys(AO)] ({Pteroyl-γGlu}-[Pra][dH][dS][dH][dT][dA][Lys(N3)]K(Butanoyl(4-(4-MePh)))GFK(X1)-OH; triazole 1-7)

NEP-mediated cleavage ([4]; 1 nM and 0.1 nM NEP): partial cleavage | NEP-mediated cleavage ([4]; 10 nM NEP): complete consumption of the peptide | in vitro Assay Data (NEP assay) ([4]; Table 2): Cleavage of -G-F-K- | NEP-mediated cleavage ([4]; below 0.1 nM NEP): no cleavage
SMILES: C[C@H](O)[C@H]1NC(=O)[C@@H](Cc2c[nH]cn2)NC(=O)[C@@H](CO)NC(=O)[C@@H](Cc2c[nH]cn2)NC(=O)[C@@H](NC(=O)CC[C@H](NC(=O)c2ccc(NCc3cnc4nc(N)[nH]c(=O)c4n3)cc2)C(=O)O)Cc2cn(nn2)CCCC[C@@H](C(=O)NCC(=O)N[C@@H](Cc2ccccc2)C(=O)N[C@@H](CCCCNC(=O)CN2CCN(CC(=O)O)CCN(CC(=O)O)CCN(CC(=O)O)CC2)C(=O)O)NC(=O)[C@@H](C)NC1=O [compound 7327, folate-hshta-Gly-Phe-Lys(DOTA)] ({Pteroyl-γGlu}-[Pra][dH][dS][dH][dT][dA][Lys(N3)]GFK(DOTA)-OH; triazole 1-7)
site of neprilysin cleavage [4]: cleaved at the amide bond between Gly and Phe

SMILES: C[C@H](O)[C@H]1NC(=O)[C@@H](Cc2ccc(O)cc2)NC(=O)[C@@H](CCCNC(=N)N)NC(=O)[C@@H](CCC(=O)O)NC(=O)[C@@H](CC(=O)O)NC(=O)[C@@H](NC(=O)COCCOCCOCCNC(=O)CCCC[C@@H]2SC[C@@H]3NC(=O)N[C@@H]32)Cc2cn(nn2)CCCC[C@@H](C(N)=O)NC1=O [deryt] ({Biotin-AEEEA}-[Pra][dD][dE][dR][dY][dT][Lys(N3)]-NH2; triazole 1-7)
EC50 ([1]; PCC alone, read-out: EC50): 10000 nM
